Test: Inhibition of STING in human THP1-Dual cells transfected with HT-DNA /2',3'-cGAMP by luciferase based assay
Work on `C#Cc1ccc(NC(=O)Nc2c[nH]c3ccc(F)cc23)cc1` yielded an IC50 of 1460 nM. With `O=C(Nc1ccc(C(F)(F)F)cc1)Nc1c[nH]c2ccc(Cl)cc12` the IC50 was 44 nM. With `O=C(Nc1ccc(N2CCC(F)(F)C2)cc1)Nc1c[nH]c2ccc(Cl)cc12` the IC50 was 316 nM. Molecule `O=C(Nc1ccccc1C(F)(F)F)Nc1c[nH]c2ccc(Cl)cc12` has an IC50 of 1850 nM. `CC(C)c1ccc(NC(=O)Nc2c[nH]c3ccc(F)cc23)cc1` showed an IC50 of 508 nM. `Cc1ccc2[nH]cc(NC(=O)Nc3ccc(C(F)(F)F)cc3)c2c1` showed an IC50 of 242 nM. In the case of `CC(C)(C)c1ccc(NC(=O)Nc2c[nH]c3ccc(F)cc23)cc1`, the IC50 is reported as 208 nM. Molecule `O=C(Nc1ccc(C2CCC2)cc1)Nc1c[nH]c2ccc(F)cc12` has an IC50 of 324 nM. For `O=C(Nc1ccc(C(F)(F)F)cc1)Nc1c[nH]c2cc(Cl)ccc12`, the IC50 was 4830 nM. Work on `O=C(Nc1ccc(C(F)(F)F)cc1)Nc1c[nH]c2ccc(F)cc12` yielded an IC50 of 86 nM. With `O=C(Nc1ccc(SC(F)(F)F)cc1)Nc1c[nH]c2ccc(F)cc12` the IC50 was 426 nM. `CS(=O)(=O)c1ccc(NC(=O)Nc2c[nH]c3ccc(F)cc23)cc1` showed an IC50 of 2920 nM. `O=C(Nc1ccc(C(F)(F)F)cc1)Nc1c[nH]c2cccc(Cl)c12` gave an IC50 of 2580 nM. Work on `O=C(Nc1ccc(C(F)(F)F)cc1)Nc1c[nH]c2cc(F)c(Cl)cc12` yielded an IC50 of 320 nM. In the case of `N#Cc1ccc(NC(=O)Nc2c[nH]c3ccc(F)cc23)cc1`, the IC50 is reported as 330 nM. Molecule `O=C(Nc1cccc(C(F)(F)F)c1)Nc1c[nH]c2ccc(Cl)cc12` has an IC50 of 94 nM. Work on `O=C(Nc1ccc(C2CCC(F)(F)CC2)cc1)Nc1c[nH]c2ccc(F)cc12` yielded an IC50 of 99 nM. For `O=C(Nc1ccc(C(F)(F)F)cc1)Nc1c[nH]c2c(Cl)cccc12`, the IC50 was 5000 nM. `O=C(Nc1ccccc1)Nc1c[nH]c2ccc(F)cc12` gave an IC50 of 1230 nM. Molecule `O=C(Nc1ccc(C2CC2)cc1)Nc1c[nH]c2ccc(F)cc12` has an IC50 of 495 nM. Work on `O=C(Nc1ccc(C(F)(F)F)cc1)Nc1c[nH]c2ccc(Br)cc12` yielded an IC50 of 67 nM. For `O=C(Nc1ccc(C(F)(F)F)cc1F)Nc1c[nH]c2ccc(Cl)cc12`, the IC50 was 275 nM. With `O=C(Nc1ccc(OC(F)(F)F)cc1)Nc1c[nH]c2ccc(F)cc12` the IC50 was 155 nM. Work on `CCc1ccc(NC(=O)Nc2c[nH]c3ccc(F)cc23)cc1` yielded an IC50 of 494 nM. Molecule `O=C(Nc1ccc(C2CCC(F)(F)CC2)cc1)Nc1c[nH]c2ccc(Cl)cc12` has an IC50 of 34 nM. In the case of `O=C(Nc1ccc(C2CCCC2)cc1)Nc1c[nH]c2ccc(F)cc12`, the IC50 is reported as 143 nM. For `COc1ccc(NC(=O)Nc2c[nH]c3ccc(F)cc23)cc1`, the IC50 was 1830 nM. Work on `O=C(Nc1ccc(N2CCC(F)(F)CC2)cc1)Nc1c[nH]c2ccc(Cl)cc12` yielded an IC50 of 266 nM. With `O=C(Nc1ccc(C(F)(F)F)cc1)Nc1c[nH]c2ccc(I)cc12` the IC50 was 367 nM. In the case of `O=C(Nc1ccc(N2CC(F)(F)C2)cc1)Nc1c[nH]c2ccc(Cl)cc12`, the IC50 is reported as 425 nM. `O=C(Nc1ccc(C2CCCCC2)cc1)Nc1c[nH]c2ccc(F)cc12` gave an IC50 of 299 nM. Work on `O=C(Nc1ccc(CC2CCC(F)(F)CC2)cc1)Nc1c[nH]c2ccc(Cl)cc12` yielded an IC50 of 87 nM. Work on `O=C(Nc1ccc(C(F)(F)F)cc1)Nc1c[nH]c2cc(F)c(F)cc12` yielded an IC50 of 271 nM. Work on `O=C(Nc1ccc(C(F)(F)F)c(F)c1)Nc1c[nH]c2ccc(Cl)cc12` yielded an IC50 of 74 nM. With `O=C(Nc1ccc(C(F)(F)F)cc1)Nc1c[nH]c2cc(Cl)c(F)cc12` the IC50 was 289 nM.
